Experimental data taken from the supplement of paper PMC4862054.

What was measured:
[1] = system: MDA-MB-468; conditions: 72 h
Method in brief: (§1)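 A 20 µl suspension of breast cancer cells was placed in 384-well plates that already contained compound at 5 concentrations in 10-fold steps across a compound-specific 10,000-fold range, and the plates were left for 72 h. CellTox Green fluorescence at 485/520 nm gave cell death, and CellTiter-Glo luminescence, read after 10 min at room temperature, gave viability. Each plate was normalised to 0.1 % DMSO and a positive kill control. EC50 was fitted from the curves and censored at the top concentration.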

[2] = system: MCF-10A; experiment: drug sensitivity score (DSS), CellTox Green (DSS (AUC-based score)); higher = stronger drug effect (viability inhibition or cytotoxicity); extreme values may be limits of the assay; conditions: incubation time: 72 h
Method in brief: (§2)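 The area under the fitted dose-response curve was used to calculate the drug sensitivity score. Cells from breast cancer lines were incubated for 72 h in 384-well plates with compound at 5 concentrations spaced 10-fold over a 10,000-fold range specific to each compound. Plates were read for CellTox Green and then CellTiter-Glo, and normalised to 0.1 % DMSO and a positive kill control.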

[3] = system: MDA-MB-453; experiment: as above; conditions: incubation time: 72 h
Method in brief: as §2

[4] = system: MDA-MB-468; experiment: as above; conditions: incubation time: 72 h
Method in brief: as §2

[5] = system: BT-474; conditions: 72 h
Method in brief: as §1

[6] = system: MDA-MB-231; conditions: 72 h
Method in brief: as §1

[7] = system: CAL-85-1; conditions: 72 h
Method in brief: as §1

[8] = system: MDA-MB-453; conditions: 72 h
Method in brief: as §1

[9] = system: BT-549; conditions: 72 h
Method in brief: as §1

[10] = system: DU-4475; conditions: 72 h
Method in brief: (§3)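 EC50 is the value from a fitted percent-inhibition dose-response curve, censored at the highest concentration, and rows with zero drug sensitivity score were not kept. The underlying assay seeded breast cancer cell lines in 20 µl onto 384-well plates pre-loaded with compound in 5 µl medium for 72 h. Viability was then read by CellTiter-Blue fluorescence at 560/590 nm after 2 h at 37 °C, with each plate normalised to vehicle and a positive kill control.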

[11] = system: MDA-MB-453; conditions: 72 h; remark: listed apart in the source
Method in brief: as §3

[12] = system: MFM-223; conditions: 72 h
Method in brief: as §1

[13] = system: CAL-85-1; conditions: 72 h; remark: listed apart in the source
Method in brief: as §3

[14] = system: CAL-51; conditions: 72 h
Method in brief: as §3

[15] = system: CAL-148; conditions: 72 h
Method in brief: as §3

[16] = system: HCC1599; conditions: 72 h
Method in brief: as §1

[17] = system: HDQ-P1; conditions: 72 h
Method in brief: as §1

[18] = system: MDA-MB-436; conditions: 72 h
Method in brief: as §1

[19] = system: CAL-120; conditions: 72 h
Method in brief: as §1

[20] = system: CAL-51; conditions: 72 h; remark: listed apart in the source
Method in brief: as §1

[21] = system: DU-4475; conditions: 72 h; remark: listed apart in the source
Method in brief: as §1

[22] = system: HCC1937; conditions: 72 h
Method in brief: as §1

[23] = system: SK-BR-3; conditions: 72 h
Method in brief: as §1

[24] = system: Hs578T; conditions: 72 h
Method in brief: as §1

[25] = system: HDQ-P1; experiment: normalised viability (% of control), CellTiter-Blue; higher = more viable cells (about 100 = DMSO control); conditions: incubation time: 72 h
Method: (§4)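 DSRT, CellTiter-Blue viability, 72 h incubation. Signal is normalised to DMSO and benzethonium chloride controls. Value is the normalised response at dose 9.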

[26] = system: CAL-85-1; experiment: as above; conditions: incubation time: 72 h
Method: as §4

[27] = system: DU-4475; experiment: as above; conditions: incubation time: 72 h
Method: as §4

[28] = system: CAL-51; experiment: as above; conditions: incubation time: 72 h
Method: as §4

[29] = system: CAL-148; experiment: as above; conditions: incubation time: 72 h
Method: as §4

[30] = system: MDA-MB-453; experiment: as above; conditions: incubation time: 72 h
Method: as §4

SMILES | EC50, CellTiter-Glo [1] | EC50, CellTiter-Glo [5] | EC50, CellTiter-Glo [9] | EC50, CellTiter-Blue viability [11] | drug sensitivity score [2] | drug sensitivity score [3] | drug sensitivity score [4] | EC50, CellTiter-Glo [7] | EC50, CellTiter-Blue viability [15] | EC50, CellTiter-Glo [20] | also measured
CCn1c(C(=O)N(C2CC2)C2CC2)cc2c3c(ncn3C)c(Nc3cc(C)n(C)n3)nc21 | > 10 µM | – | – | – | 0 | 0 | 1.81 | – | – | – | –
CNC(=O)c1ccccc1Sc1ccc2c(/C=C/c3ccccn3)n[nH]c2c1 [Axitinib] | 3.88 µM | – | – | 0.657 µM | 0 | 0 | 0 | – | 1.88 µM | 0.465 µM | EC50, CellTiter-Blue viability [13]: 1.25 µM; EC50, CellTiter-Blue viability [10]: 2.25 µM; EC50, CellTiter-Blue viability [14]: 1.61 µM; EC50, CellTiter-Glo [12]: 0.348 µM; EC50, CellTiter-Glo [16]: 0.881 µM; EC50, CellTiter-Glo [17]: 4.77 µM; EC50, CellTiter-Glo [18]: 3.04 µM; EC50, CellTiter-Glo [19]: 3.57 µM
CC(O)(CS(=O)(=O)c1ccc(F)cc1)C(=O)Nc1ccc(C#N)c(C(F)(F)F)c1 (stereo unspecified) [Bicalutamide] | – | – | – | – | 0 | 0 | – | – | – | – | EC50, CellTiter-Glo [8]: > 10 µM
CCN(CC)CCCC(C)Nc1ccnc2cc(Cl)ccc12 (stereo unspecified) [Chloroquine] | 10.6 µM | 14.5 µM | 15 µM | – | 7.9 | 9.85 | 27.3 | 11.3 µM | – | 6.56 µM | EC50, CellTiter-Glo [12]: 13.7 µM; EC50, CellTiter-Glo [6]: 16.3 µM; EC50, CellTiter-Glo [16]: 14.1 µM; EC50, CellTiter-Glo [17]: 20.7 µM; EC50, CellTiter-Glo [18]: 16.3 µM; EC50, CellTiter-Glo [21]: 18.7 µM; EC50, CellTiter-Glo [19]: 9.49 µM; EC50, CellTiter-Glo [22]: 15.3 µM; EC50, CellTiter-Glo [8]: 4.03 µM; EC50, CellTiter-Glo [23]: 4.91 µM; EC50, CellTiter-Glo [24]: 30.2 µM
CC(C)(C)c1nc(-c2cccc(NS(=O)(=O)c3c(F)cccc3F)c2F)c(-c2ccnc(N)n2)s1 [Dabrafenib] | – | – | – | – | 0 | 0 | 0 | – | – | – | EC50, CellTiter-Glo [21]: 0.06 µM; EC50, CellTiter-Glo [19]: 0.0563 µM; EC50, CellTiter-Glo [24]: > 2.5 µM
Cn1cc(C2=C(c3cn(C4CCN(Cc5ccccn5)CC4)c4ccccc34)C(=O)NC2=O)c2ccccc21 [Enzastaurin] | – | – | – | 0.408 µM | 0 | 0 | 0 | – | 0.024 µM | – | –
O=C(O)CNC(=O)c1c(O)c2ccccc2n(Cc2ccccc2)c1=O [IOX-2] | – | – | > 50 µM | – | 0 | 1.5 | 0 | – | – | 1.02 µM | –
C=CCn1c(=O)c2cnc(Nc3ccc(N4CCN(C)CC4)cc3)nc2n1-c1cccc(C(C)(C)O)n1 [MK1775] (10000 nM) | – | – | – | – | – | – | – | – | – | – | normalised viability [25]: 16%; normalised viability [26]: 17.4%; normalised viability [27]: 2.68%; normalised viability [28]: 2.98%; normalised viability [29]: 5.88%; normalised viability [30]: 15.2%

Second part, led by results:

EC50, CellTiter-Glo [1] | EC50, CellTiter-Glo [5] | EC50, CellTiter-Glo [9] | EC50, CellTiter-Blue viability [11] | SMILES | drug sensitivity score [2] | drug sensitivity score [3] | drug sensitivity score [4] | EC50, CellTiter-Glo [7] | EC50, CellTiter-Blue viability [15] | EC50, CellTiter-Glo [20] | also measured
0.563 µM | 0.0838 µM | 0.00597 µM | – | CN[C@@H](C)C(=O)N[C@H]1CN(C(=O)CC(C)C)CC[C@H]2CC[C@@H](C(=O)NC(c3ccccc3)c3ccccc3)N2C1=O [AT-406] | 0 | 0 | 0 | 0.826 µM | – | – | EC50, CellTiter-Glo [6]: 0.278 µM; EC50, CellTiter-Glo [8]: 4.49 µM
– | – | – | 0.782 µM | Cc1cc(Nc2nc(N[C@@H](C)c3ncc(F)cn3)ncc2Cl)[nH]n1 [AZD1480] | 0 | 0 | 0 | – | – | – | EC50, CellTiter-Blue viability [10]: 0.443 µM; EC50, CellTiter-Glo [12]: 0.0946 µM
4.75 µM | 3.98 µM | 1.67 µM | – | CC1(COc2ccc3c(c2)ncn3-c2ccc3cccc(N4CCC(N)CC4)c3n2)COC1 [Crenolanib] | 5.3 | 0 | 0 | 3.97 µM | – | 2.63 µM | EC50, CellTiter-Glo [6]: 4.02 µM; EC50, CellTiter-Glo [16]: > 10 µM; EC50, CellTiter-Glo [17]: 5.07 µM; EC50, CellTiter-Glo [18]: 4.11 µM; EC50, CellTiter-Glo [21]: 3.33 µM; EC50, CellTiter-Glo [22]: > 10 µM; EC50, CellTiter-Glo [8]: 5.37 µM; EC50, CellTiter-Glo [23]: 4.18 µM; EC50, CellTiter-Glo [24]: 3.34 µM
– | – | – | 7.43 µM | CC(C)(C)NC(=O)[C@H]1CC[C@H]2[C@@H]3CC[C@H]4NC(=O)C=C[C@]4(C)[C@H]3CC[C@]12C [Finasteride] | 0 | 0 | 0 | – | 8.19 µM | – | EC50, CellTiter-Blue viability [10]: 5.42 µM; EC50, CellTiter-Blue viability [14]: 8.16 µM
0.0314 µM | 0.808 µM | 0.0382 µM | 0.515 µM | C/C(=C\c1csc(C)n1)[C@@H]1C[C@@H]2O[C@]2(C)CCC[C@H](C)[C@H](O)[C@@H](C)C(=O)C(C)(C)[C@@H](O)CC(=O)N1 [Ixabepilone] | 0 | 0 | 1.3 | 0.66 µM | 0.601 µM | 0.023 µM | EC50, CellTiter-Blue viability [13]: 0.947 µM; EC50, CellTiter-Blue viability [10]: 0.642 µM; EC50, CellTiter-Blue viability [14]: > 1 µM
> 100 µM | – | – | – | CN(C)C(=N)NC(=N)N [Metformin] | 0 | 0 | 14.1 | – | – | 0.36 µM | –
– | 7.23 µM | – | – | CN(Cc1cnc2nc(N)nc(N)c2n1)c1ccc(C(=O)N[C@@H](CCC(=O)O)C(=O)O)cc1 [Methotrexate] | 0 | 0.671 | 0 | 2.02 µM | 0.0465 µM | 0.0196 µM | EC50, CellTiter-Blue viability [13]: 0.0717 µM; EC50, CellTiter-Blue viability [14]: 0.0848 µM; EC50, CellTiter-Glo [6]: 6.84 µM; EC50, CellTiter-Glo [16]: 17.8 µM; EC50, CellTiter-Glo [17]: 0.0129 µM; EC50, CellTiter-Glo [18]: 1.46 µM; EC50, CellTiter-Glo [19]: 0.809 µM; EC50, CellTiter-Glo [22]: 0.0204 µM; EC50, CellTiter-Glo [24]: 29 µM
